US20070174925A1, “Treatment models and uses thereof” (priority 2003, published 2007)

Experiments:
[1] = test system: zebrafish; test: DMSO tolerance of zebrafish; format: in vivo; conditions: final concentration in fish water
Protocol: A further advantage of zebrafish is the fact they live in water. This makes administration of candidate chemicals easy. Moreover, the inventors have discovered that zebrafish are also DMSO tolerant. This is important as many drugs are dissolved in DMSO. The inventors have established that zebrafish can tolerate 1% DMSO. Thus, a candidate drug or other test substance may be dissolved in DMSO and administered to zebrafish by adding to the fish water to give a final concentration of DMSO of at least up to 1%. This is employed in various preferred aspects and embodiments of the present invention.

[2] = test system: larval zebrafish; test: temperature gradient assay of thermal nociception; format: in vivo; conditions: for location of fish in temperature gradient versus control fish: fish less than 10 days old, opiate 1 ug/ml or cannabinoid 5 ug/ml in water for 30 minutes at 28° C. before testing, t=10 mins
Protocol: 1. The ambient environment was prepared through the use of an air handling system to maintain a constant air temperature below 24° C., enabling maintenance of a stable water gradient.
2. A shallow tray was taken of dimensions 2 cm deep, 30 cm long and 20 cm wide. This was filled with oxygenated water from the aquarium, the composition of which is suitable sustain zebrafish. This water was cooled to less than the lowest temperature desired in the gradient.
3. The tray was placed on top of two heating plates: a hot plate, capable of heating to high temperatures, and a hot block. The heights of the blocks were adjusted so that when the tray is placed on top of them the tray lies flat (FIG. 1). It was important to ensure the heating surfaces were symmetrically located under the long axis of the tray to ensure equal heating of both longitudinal halves of the tray.
4. A transparent 30 cm ruler was placed on top of the tray and the boundaries of 4 quadrants marked on it: 0-7.5 cm, 7.5-15 cm, 15-22.5 cm and 22.5-30 cm (FIGS. 2 and 8). These serve to split the gradient up into areas as a means of summarizing temperature choice.
5. Aluminum foil was used to make channels for the fish to swim in. These were water tight and closed at one end and open at the other. […] The open end is necessary so that as water evaporates from the hot end the channels don't dry up. They were then placed in the water with the closed end at the cool end. They were then filled with water. The channels were in the middle of the tray, i.e. not closer to one long side of the tray than the other.
6. The hotplate and hotblock were turned on to achieve a temperature of about 40° C. maintained at the hot end, with the unheated end reaching only 24° C. To measure the temperature at each quadrant boundary, thermometers were placed near the channels at each boundary.
7. When a stable gradient was achieved, fish were taken directly from the fish room (28° C.). As much of the liquid around them as possible was removed. […]
9. At 2, 5 and 10 minutes, the number of fish in each quadrant was counted. […]

[3] = test system: fish sensitized with DNCB; test: DNCB-induced hyperalgesia and its rescue, temperature gradient assay; format: in vivo, zebrafish; conditions: same DNCB-sensitized fish treated with an opiate and retested; t=5 mins

Structure (SMILES)	concentration tolerated by zebrafish [1] [%]	location of fish in temperature gradient versus control fish [2]	distribution in gradient of DNCB-sensitized fish after treatment and retest (rescue of hyperalgesia) [3]	location of three week old fish in temperature gradient versus untreated fish ([2]; three week old fish treated with an opiate)
C[S+](C)[O-] [DMSO]	1	–	–	–
CCCCC/C=C\C/C=C\C/C=C\C/C=C\CCCC(=O)NCCO [endogenous cannabinoid, Anandamide]	–	less aversion to higher temperatures	–	–
COC(=O)N1CCN(C(=O)Cc2ccc(Cl)c(Cl)c2)C(CN2CCCC2)C1.O=C(O)/C=C/C(=O)O (centres unmarked) [opiate, GR 89696 Fumerate]	–	more often found in water of a higher temperature than control fish	lose this sensitivity, and their distribution becomes randomized in the gradient	locate to regions of a higher temperature than untreated fish
